Measured values taken from ChEMBL document CHEMBL5241069, “A key review on oxadiazole analogs as potential methicillin-resistant Staphylococcus aureus (MRSA) activity: Structure-activity relationship studies” (Eur J Med Chem, 2021).
In brackets after ≈: the same amount, converted by molar mass.

Experiments:
Staphylococcus aureus [1] = assay: Antibacterial activity against methicillin resistant Staphylococcus aureus assessed as inhibition zone by disc diffusion method; assay type: functional
Staphylococcus aureus [2] = assay: Antibacterial activity against methicillin resistant Staphylococcus aureus assessed as inhibition of bacterial growth by broth dilution technique; assay type: functional
Staphylococcus aureus [3] = assay: Antimicrobial activity against methicillin resistant Staphylococcus aureus 1 assessed as inhibition of bacterial growth incubated for 16 to 20 hrs by CLSI protocol based Muller-Hinton broth method; assay type: functional; conditions: time 16-20 hrs
Staphylococcus aureus [4] = assay: Antimicrobial activity against methicillin resistant Staphylococcus aureus 2 assessed as inhibition of bacterial growth incubated for 16 to 20 hrs by CLSI protocol based Muller-Hinton broth method; assay type: functional; conditions: time 16-20 hrs
Staphylococcus aureus [5] = assay: Antimicrobial activity against methicillin resistant Staphylococcus aureus 3 assessed as inhibition of bacterial growth incubated for 16 to 20 hrs by CLSI protocol based Muller-Hinton broth method; assay type: functional; conditions: time 16-20 hrs
Staphylococcus aureus [6] = assay: Antibacterial activity methicillin resistant Staphylococcus aureus 2658 RCMB assessed as inhibition of bacterial growth by broth microdilution method; assay type: functional
Staphylococcus aureus [7] = assay: Antibiofilm activity against methicillin resistant Staphylococcus aureus ATCC 43866 assessed as inhibition of biofilm formation incubated for 18 to 24 hrs by tissue culture plate method; assay type: functional; conditions: time 18-24 hrs
Staphylococcus aureus [8] = assay: Antibacterial activity against methicillin resistant Staphylococcus aureus 42 assessed as inhibition of bacterial growth; assay type: functional
Staphylococcus aureus [9] = assay: Antibacterial activity against methicillin resistant Staphylococcus aureus 128 assessed as inhibition of bacterial growth; assay type: functional
Staphylococcus aureus [10] = assay: Antibacterial activity against methicillin resistant Staphylococcus aureus 181 assessed as inhibition of bacterial growth; assay type: functional
Staphylococcus aureus [11] = assay: Antibacterial activity against methicillin resistant Staphylococcus aureus 747 assessed as inhibition of bacterial growth; assay type: functional
Staphylococcus aureus [12] = assay: microbe, parasite or virus in culture; conditions: 032
Description: Antibacterial activity against methicillin resistant Staphylococcus aureus 032 assessed as inhibition of bacterial growth by CLSI protocol based serial dilution method

## CCCC(O)C/C=C/CCCCCCc1nnc(-c2ccccc2Cl)o1 (stereo unspecified)
Staphylococcus aureus [1]
  inhibition zone (IZ): 19.5 mm
Staphylococcus aureus [2]
  MIC: 12.5 µg/mL (≈ 33.2 µM)

## CCn1cc(C(=O)O)c(=O)c2cc(F)c(N3CCN(Cc4nnc(-c5ccc(OC)cc5)o4)CC3)cc21
Staphylococcus aureus [3]
  MIC: 1 µg/mL (≈ 1.97 µM)
Staphylococcus aureus [4]
  MIC: 0.5 µg/mL (≈ 0.985 µM)
Staphylococcus aureus [5]
  MIC: 1 µg/mL (≈ 1.97 µM)

## Cc1nc(-c2ccc(C(C)(C)C)cc2)sc1-c1nnc(NC(=N)N)o1
Staphylococcus aureus [6]
  MIC: 6.25 µg/mL (≈ 17.5 µM)

## Cn1c(-c2nnc(-c3ccc([N+](=O)[O-])cc3)o2)cc(Br)c1Br
Staphylococcus aureus [7]
  MIC: 3.12 µg/mL (≈ 7.3 µM)

## Cc1nc(-c2ccc(C(C)(C)C)cc2)sc1-c1nnc(NC(=N)c2ccncc2)o1
Staphylococcus aureus [6]
  MIC: > 50 µg/mL

## O=c1c(Br)cnc2onc(-c3c(F)cccc3F)n12
Staphylococcus aureus [8]
  MIC: 15.8 µg/mL (≈ 48.2 µM)
Staphylococcus aureus [9]
  MIC: 32.4 µg/mL (≈ 98.8 µM)
Staphylococcus aureus [10]
  MIC: 40.2 µg/mL (≈ 123 µM)
Staphylococcus aureus [11]
  MIC: 40.2 µg/mL (≈ 123 µM)

## Cc1nc(-c2ccc(C(C)(C)C)cc2)sc1-c1nnc(NC(=N)N2CCN(C)CC2)o1
Staphylococcus aureus [6]
  MIC: 25 µg/mL (≈ 56.9 µM)

## C=CCCCCCCCc1nnc(-c2ccco2)o1
Staphylococcus aureus [1]
  inhibition zone (IZ): 11.1 mm
Staphylococcus aureus [2]
  MIC: 12.5 µg/mL (≈ 48 µM)

## Cn1c(-c2nnc(-c3cc(Br)c(Br)[nH]3)o2)cc(Br)c1Br
Staphylococcus aureus [7]
  MIC: 1.56 µg/mL (≈ 2.94 µM)

## Cc1nc(-c2ccc(C(C)(C)C)cc2)sc1-c1nnc(NC(=N)c2ccccn2)o1
Staphylococcus aureus [6]
  MIC: > 50 µg/mL

## CCCCC/C=C/CCC(O)CCCCCCc1nnc(-c2ccccc2Cl)o1 (stereo unspecified)
Staphylococcus aureus [1]
  inhibition zone (IZ): 19.7 mm
Staphylococcus aureus [2]
  MIC: 12.5 µg/mL (≈ 29.8 µM)

## CCn1cc(C(=O)O)c(=O)c2cc(F)c(N3CCN(Cc4nnc(-c5ccccc5Cl)o4)CC3)cc21
Staphylococcus aureus [3]
  MIC: 0.5 µg/mL (≈ 0.977 µM)
Staphylococcus aureus [4]
  MIC: 1 µg/mL (≈ 1.95 µM)
Staphylococcus aureus [5]
  MIC: 1 µg/mL (≈ 1.95 µM)

## COc1ccc(-c2nnc(-c3cc(Br)c(Br)n3C)o2)cc1
Staphylococcus aureus [7]
  MIC: 1.56 µg/mL (≈ 3.78 µM)

## Cc1nc(/C(=C\c2coc3ccc(Br)cc3c2=O)c2ccc([N+](=O)[O-])cc2)no1
Staphylococcus aureus [12]
  MIC: > 32 µg/mL

## Cn1c(-c2nnc(-c3cc(F)ccc3Cl)o2)cc(Br)c1Br
Staphylococcus aureus [7]
  MIC: 3.12 µg/mL (≈ 7.18 µM)

## O=c1c(Br)cnc2onc(-c3ccc(Cl)cc3)n12
Staphylococcus aureus [8]
  MIC: 96.4 µg/mL (≈ 295 µM)
Staphylococcus aureus [9]
  MIC: 96.3 µg/mL (≈ 295 µM)
Staphylococcus aureus [10]
  MIC: 53.6 µg/mL (≈ 164 µM)
Staphylococcus aureus [11]
  MIC: 59.4 µg/mL (≈ 182 µM)

## CCn1cc(C(=O)O)c(=O)c2cc(F)c(N3CCNCC3)cc21 [NORFLOXACIN]
Staphylococcus aureus [3]
  MIC: 1 µg/mL (≈ 3.13 µM)
Staphylococcus aureus [4]
  MIC: 2 µg/mL (≈ 6.26 µM)
Staphylococcus aureus [5]
  MIC: 1 µg/mL (≈ 3.13 µM)

## CCCCC/C=C/CCC(O)CCCCCCc1nnc(-c2ccco2)o1 (stereo unspecified)
Staphylococcus aureus [1]
  inhibition zone (IZ): 13.2 mm
Staphylococcus aureus [2]
  MIC: 12.5 µg/mL (≈ 33.4 µM)

## Cn1c(-c2nnc(-c3ccc(Cl)cc3)o2)cc(Br)c1Br
Staphylococcus aureus [7]
  MIC: 1.56 µg/mL (≈ 3.74 µM)

## Cn1c(-c2nnc(/C=C/c3ccccc3)o2)cc(Br)c1Br
Staphylococcus aureus [7]
  MIC: 6.25 µg/mL (≈ 15.3 µM)

## O=c1c(Br)cnc2onc(-c3cccc(F)c3F)n12
Staphylococcus aureus [8]
  MIC: 20.8 µg/mL (≈ 63.4 µM)
Staphylococcus aureus [9]
  MIC: 37.8 µg/mL (≈ 115 µM)
Staphylococcus aureus [10]
  MIC: 42.1 µg/mL (≈ 128 µM)
Staphylococcus aureus [11]
  MIC: 42.1 µg/mL (≈ 128 µM)

## Cn1c(-c2nnc(Cc3ccccc3)o2)cc(Br)c1Br
Staphylococcus aureus [7]
  MIC: 6.25 µg/mL (≈ 15.7 µM)

## O=c1c(F)cnc2onc(-c3cccc(F)c3F)n12
Staphylococcus aureus [8]
  MIC: 115 µg/mL (≈ 429 µM)
Staphylococcus aureus [9]
  MIC: ≥ 125 µg/mL
Staphylococcus aureus [10]
  MIC: ≥ 125 µg/mL
Staphylococcus aureus [11]
  MIC: ≥ 125 µg/mL

## Cn1c(-c2nnc(-c3ccccc3O)o2)cc(Br)c1Br
Staphylococcus aureus [7]
  MIC: 6.25 µg/mL (≈ 15.7 µM)

## CCCCCCCCCCCCCCC(Br)c1nnc(-c2ccccc2Cl)o1 (stereo unspecified)
Staphylococcus aureus [1]
  inhibition zone (IZ): 20.5 mm
Staphylococcus aureus [2]
  MIC: 12.5 µg/mL (≈ 26.6 µM)

## CCCCCCCC/C=C/CCCCCCc1nnc(-c2ccccc2Cl)o1
Staphylococcus aureus [1]
  inhibition zone (IZ): 16.6 mm
Staphylococcus aureus [2]
  MIC: 12.5 µg/mL (≈ 31 µM)

## CCCCCCCCCCCCCCC(Br)c1nnc(-c2ccco2)o1 (stereo unspecified)
Staphylococcus aureus [1]
  inhibition zone (IZ): 21.6 mm
Staphylococcus aureus [2]
  MIC: 12.5 µg/mL (≈ 29.4 µM)

## Cc1nc(/C(=C\c2coc3ccc(Cl)cc3c2=O)c2ccc([N+](=O)[O-])cc2)no1
Staphylococcus aureus [12]
  MIC: > 32 µg/mL

## O=c1c(Br)cnc2onc(-c3ccccc3)n12
Staphylococcus aureus [8]
  MIC: 123 µg/mL (≈ 422 µM)
Staphylococcus aureus [9]
  MIC: ≥ 125 µg/mL
Staphylococcus aureus [10]
  MIC: ≥ 125 µg/mL
Staphylococcus aureus [11]
  MIC: ≥ 125 µg/mL

## O=c1c(F)cnc2onc(-c3cccc(Cl)c3Cl)n12
Staphylococcus aureus [8]
  MIC: 101 µg/mL (≈ 336 µM)
Staphylococcus aureus [9]
  MIC: ≥ 125 µg/mL
Staphylococcus aureus [10]
  MIC: ≥ 125 µg/mL
Staphylococcus aureus [11]
  MIC: ≥ 125 µg/mL
